Results published in ChEMBL document CHEMBL1909046, “DrugMatrix in vitro pharmacology data”.

Legend:
[1] = target: 5-hydroxytryptamine receptor 6 (Homo sapiens, UniProt P50406); assay type: cell membranes, HeLa, Membrane; also: in other assays of this panel Not Active means under 50% inhibition at 10 µM
[2] = target: Sigma non-opioid intracellular receptor 1 (Homo sapiens, UniProt Q99720); experiment: DRUGMATRIX: Sigma1 radioligand binding (ligand: [3H] Haloperidol); assay type: cell membranes, Jurkat, Membrane; details: Not Active = under 50% inhibition at 10 µM
Vasopressin V1a receptor = Vasopressin V1a receptor (Homo sapiens, UniProt P37288); assay type: cell membranes, Membrane; details: hek293; also: in other assays of this panel Not Active means under 50% inhibition at 10 µM
Insulin receptor = Insulin receptor (Rattus norvegicus, UniProt P15127); assay type: cell membranes, Wistar, Liver, Membrane; also: in other assays of this panel Not Active means under 50% inhibition at 10 µM
[3] = target: T1, Cysteinyl leukotriene receptor 1 (Homo sapiens, UniProt Q9Y271); assay type: cell membranes, Membrane; details: cho-k1; also: in other assays of this panel Not Active means under 50% inhibition at 10 µM
T1 sequence (Q9Y271 whole entry): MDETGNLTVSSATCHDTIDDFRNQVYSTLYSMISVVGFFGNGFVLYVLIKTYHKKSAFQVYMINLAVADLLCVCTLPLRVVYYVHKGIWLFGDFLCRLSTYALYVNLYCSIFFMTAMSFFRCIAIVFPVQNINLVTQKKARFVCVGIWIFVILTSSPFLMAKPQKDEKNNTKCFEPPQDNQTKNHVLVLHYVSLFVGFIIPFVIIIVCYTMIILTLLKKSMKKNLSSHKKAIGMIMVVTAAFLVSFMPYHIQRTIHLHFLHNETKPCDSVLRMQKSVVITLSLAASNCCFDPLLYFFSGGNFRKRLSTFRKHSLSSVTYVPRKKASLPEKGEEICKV

[4] = target: Platelet-activating factor receptor (Homo sapiens, UniProt P25105); assay type: tissue-based; also: in other assays of this panel Not Active means under 50% inhibition at 10 µM
[5] = DRUGMATRIX: Potassium Channel [KATP] radioligand binding (ligand: [3H] Glyburide); assay type: cell membranes, Membrane; details: hit-t15; Not Active = under 50% inhibition at 10 µM
Glucocorticoid receptor = target: T2, Glucocorticoid receptor (Homo sapiens, UniProt P04150); details: hela s3; also: in other assays of this panel Not Active means under 50% inhibition at 10 µM
T2 sequence (P04150 whole entry): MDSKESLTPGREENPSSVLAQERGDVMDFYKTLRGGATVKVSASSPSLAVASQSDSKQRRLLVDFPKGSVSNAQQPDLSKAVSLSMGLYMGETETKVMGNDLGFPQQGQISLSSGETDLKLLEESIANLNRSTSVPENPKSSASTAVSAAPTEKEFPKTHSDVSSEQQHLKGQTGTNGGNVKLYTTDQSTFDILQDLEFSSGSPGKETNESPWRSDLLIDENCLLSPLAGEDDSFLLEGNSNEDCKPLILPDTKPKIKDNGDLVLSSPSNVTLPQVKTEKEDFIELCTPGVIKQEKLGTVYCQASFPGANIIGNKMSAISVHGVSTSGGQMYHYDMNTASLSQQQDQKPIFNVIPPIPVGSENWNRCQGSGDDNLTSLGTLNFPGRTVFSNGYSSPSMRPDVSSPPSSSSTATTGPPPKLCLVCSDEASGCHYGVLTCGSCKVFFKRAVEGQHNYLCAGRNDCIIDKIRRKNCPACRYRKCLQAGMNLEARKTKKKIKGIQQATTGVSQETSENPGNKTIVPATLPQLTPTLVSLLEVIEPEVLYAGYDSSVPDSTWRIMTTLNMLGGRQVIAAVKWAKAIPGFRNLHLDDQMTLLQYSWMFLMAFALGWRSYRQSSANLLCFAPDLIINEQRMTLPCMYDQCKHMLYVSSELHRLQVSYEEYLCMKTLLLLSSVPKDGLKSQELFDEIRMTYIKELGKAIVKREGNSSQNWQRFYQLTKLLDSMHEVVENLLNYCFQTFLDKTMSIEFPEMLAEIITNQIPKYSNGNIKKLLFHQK

Chain of Platelet-activating factor receptor (P25105 whole entry): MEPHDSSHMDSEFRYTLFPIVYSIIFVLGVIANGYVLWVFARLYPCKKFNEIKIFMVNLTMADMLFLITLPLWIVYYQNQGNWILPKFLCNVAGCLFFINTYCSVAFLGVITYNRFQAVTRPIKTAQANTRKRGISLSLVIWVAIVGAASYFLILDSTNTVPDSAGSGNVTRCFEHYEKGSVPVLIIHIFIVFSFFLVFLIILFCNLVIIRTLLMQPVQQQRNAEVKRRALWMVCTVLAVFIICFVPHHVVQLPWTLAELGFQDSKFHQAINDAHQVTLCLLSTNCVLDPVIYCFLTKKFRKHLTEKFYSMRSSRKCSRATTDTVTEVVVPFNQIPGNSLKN
Chain of Insulin receptor (P15127 27-759 limits assumed): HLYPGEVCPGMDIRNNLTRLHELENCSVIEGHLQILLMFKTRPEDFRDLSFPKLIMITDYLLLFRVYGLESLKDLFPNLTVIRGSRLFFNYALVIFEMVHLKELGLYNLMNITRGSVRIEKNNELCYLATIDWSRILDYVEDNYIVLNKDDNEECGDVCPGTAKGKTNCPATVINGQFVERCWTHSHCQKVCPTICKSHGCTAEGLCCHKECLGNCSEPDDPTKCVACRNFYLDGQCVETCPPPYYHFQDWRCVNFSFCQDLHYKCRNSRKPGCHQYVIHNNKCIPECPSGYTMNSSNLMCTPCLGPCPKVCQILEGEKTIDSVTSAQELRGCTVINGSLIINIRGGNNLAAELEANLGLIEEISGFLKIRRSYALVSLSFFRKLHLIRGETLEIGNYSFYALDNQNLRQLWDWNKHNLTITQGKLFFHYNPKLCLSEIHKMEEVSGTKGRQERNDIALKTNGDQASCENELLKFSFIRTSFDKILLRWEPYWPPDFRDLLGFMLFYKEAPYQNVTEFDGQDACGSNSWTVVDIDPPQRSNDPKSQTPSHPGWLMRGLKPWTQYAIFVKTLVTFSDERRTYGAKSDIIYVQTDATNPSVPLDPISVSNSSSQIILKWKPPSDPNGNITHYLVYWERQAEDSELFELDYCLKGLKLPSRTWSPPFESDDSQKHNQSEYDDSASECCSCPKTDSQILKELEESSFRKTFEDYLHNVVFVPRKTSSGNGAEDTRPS
Chain of Insulin receptor (P15127 764-1383 limits assumed): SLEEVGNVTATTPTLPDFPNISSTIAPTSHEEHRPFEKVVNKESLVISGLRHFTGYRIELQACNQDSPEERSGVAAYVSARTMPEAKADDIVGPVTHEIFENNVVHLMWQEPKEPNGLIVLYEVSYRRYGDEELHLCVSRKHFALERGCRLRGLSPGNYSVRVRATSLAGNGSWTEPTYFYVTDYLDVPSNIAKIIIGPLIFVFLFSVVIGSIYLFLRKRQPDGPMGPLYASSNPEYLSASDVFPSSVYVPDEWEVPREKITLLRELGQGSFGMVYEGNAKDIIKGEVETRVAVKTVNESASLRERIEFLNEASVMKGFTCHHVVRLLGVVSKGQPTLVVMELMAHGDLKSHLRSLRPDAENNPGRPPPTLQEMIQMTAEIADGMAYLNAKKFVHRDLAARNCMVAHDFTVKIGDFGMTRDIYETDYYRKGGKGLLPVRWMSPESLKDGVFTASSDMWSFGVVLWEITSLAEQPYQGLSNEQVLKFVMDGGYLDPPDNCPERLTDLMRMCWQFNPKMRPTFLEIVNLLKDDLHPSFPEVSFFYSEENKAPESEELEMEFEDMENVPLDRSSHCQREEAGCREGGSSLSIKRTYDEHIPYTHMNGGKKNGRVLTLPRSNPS
Chain of 5-hydroxytryptamine receptor 6 (P50406 whole entry): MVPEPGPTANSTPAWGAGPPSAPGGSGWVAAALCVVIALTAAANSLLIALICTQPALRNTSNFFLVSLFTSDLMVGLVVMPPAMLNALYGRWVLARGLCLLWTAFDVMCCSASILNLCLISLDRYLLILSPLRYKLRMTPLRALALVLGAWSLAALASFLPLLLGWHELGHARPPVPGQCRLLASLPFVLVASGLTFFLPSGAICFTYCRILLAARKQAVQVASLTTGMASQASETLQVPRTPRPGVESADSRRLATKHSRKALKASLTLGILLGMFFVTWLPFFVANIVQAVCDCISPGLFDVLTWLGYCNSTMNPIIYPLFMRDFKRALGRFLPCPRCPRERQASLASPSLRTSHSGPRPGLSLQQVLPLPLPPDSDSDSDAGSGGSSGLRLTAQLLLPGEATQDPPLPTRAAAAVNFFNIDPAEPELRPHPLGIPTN
Chain of Sigma non-opioid intracellular receptor 1 (Q99720 whole entry): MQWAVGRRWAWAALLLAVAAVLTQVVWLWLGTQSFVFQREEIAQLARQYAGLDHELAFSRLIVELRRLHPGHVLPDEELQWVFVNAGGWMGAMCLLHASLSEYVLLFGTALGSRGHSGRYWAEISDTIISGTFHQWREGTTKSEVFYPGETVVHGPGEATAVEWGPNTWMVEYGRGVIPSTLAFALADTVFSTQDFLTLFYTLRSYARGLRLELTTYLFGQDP
Chain of Vasopressin V1a receptor (P37288 whole entry): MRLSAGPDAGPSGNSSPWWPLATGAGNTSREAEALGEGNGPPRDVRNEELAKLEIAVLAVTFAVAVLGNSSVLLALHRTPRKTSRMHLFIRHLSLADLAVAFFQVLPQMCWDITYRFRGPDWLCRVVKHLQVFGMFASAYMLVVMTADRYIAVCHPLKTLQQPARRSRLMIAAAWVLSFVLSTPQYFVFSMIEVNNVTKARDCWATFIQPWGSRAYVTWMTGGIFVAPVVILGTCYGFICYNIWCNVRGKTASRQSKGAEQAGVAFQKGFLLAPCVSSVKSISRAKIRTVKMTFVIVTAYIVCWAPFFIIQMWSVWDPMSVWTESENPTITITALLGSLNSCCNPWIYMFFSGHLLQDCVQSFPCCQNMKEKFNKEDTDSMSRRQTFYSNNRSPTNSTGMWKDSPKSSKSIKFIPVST

Row | Compound | IC50 ([1]; hela) | IC50 ([2]; jurkat) | IC50 (Vasopressin V1a receptor) | IC50 (Insulin receptor) | IC50 [3] | IC50 [4] | IC50 [5] | Ki [5] | IC50 (Glucocorticoid receptor) | IC50 ([2]; read-out: IC50) | Ki ([2]; read-out: Ki) | Ki ([1]; hela) | Ki ([2]; jurkat) | Ki (Vasopressin V1a receptor) | Ki (Insulin receptor) | Ki [3] | Ki [4] | Ki (Glucocorticoid receptor) | IC50 ([1]; read-out: IC50) | Ki ([1]; read-out: Ki)
1 | O=C(Oc1ccccc1C(=O)O)c1ccccc1O [SALSALATE] | Not Active | Not Active | Not Active | Not Active | Not Active | Not Active | Not Active | Not Active |  |  |  |  |  |  |  |  |  |  |  | 
2 | CNC1(c2ccccc2Cl)CCCCC1=O (centres undefined) [KETAMINE] | Not Active | Not Active | Not Active | Not Active | Not Active | Not Active | Not Active | Not Active | Not Active |  |  |  |  |  |  |  |  |  |  | 
3 | Fc1ccc(C(c2ccc(F)cc2)N2CCN(C/C=C/c3ccccc3)CC2)cc1 [FLUNARIZINE] | Not Active |  | Not Active | Not Active | Not Active | Not Active |  |  | Not Active | 0.025 µM | 0.01 µM |  |  |  |  |  |  |  |  | 
4 | CN[C@H]1CC[C@@H](c2ccc(Cl)c(Cl)c2)c2ccccc21 [SERTRALINE] | Not Active |  | Not Active | Not Active | Not Active | Not Active |  |  | Not Active |  |  |  |  |  |  |  |  |  |  | 
5 | O=C(Nc1ccc(Br)cc1)c1cc(Br)cc(Br)c1O [TRIBROMSALAN] | Not Active | Not Active | Not Active | Not Active | Not Active | Not Active | Not Active | Not Active | Not Active |  |  |  |  |  |  |  |  |  |  | 
6 | CC(C)NCC(O)c1ccc(O)c(O)c1 (centres undefined) [ISOPROTERENOL] | Not Active | Not Active | Not Active | Not Active | Not Active | Not Active | Not Active | Not Active | Not Active |  |  |  |  |  |  |  |  |  |  | 
7 | Cc1cccc(C)c1OCC(C)N (centres undefined) [MEXILETINE] | Not Active | Not Active | Not Active | Not Active | Not Active | Not Active | Not Active | Not Active |  |  |  |  |  |  |  |  |  |  |  | 
8 | MANGANESE CHLORIDE ANHYDROUS | Not Active | Not Active | Not Active | Not Active | Not Active | Not Active | Not Active | Not Active | Not Active |  |  | Not Active | Not Active | Not Active | Not Active | Not Active | Not Active | Not Active |  | 
9 | CCN(CC)CCNC(=O)c1cc(S(C)(=O)=O)ccc1OC [TIAPRIDE] | Not Active | Not Active | Not Active | Not Active | Not Active | Not Active | Not Active | Not Active | Not Active |  |  |  |  |  |  |  |  |  |  | 
10 | Clc1ccc(COC(Cn2ccnc2)c2ccc(Cl)cc2Cl)cc1 (centres undefined) [ECONAZOLE] |  |  | Not Active | Not Active | Not Active | Not Active |  |  | Not Active | 21.1 µM | 8.87 µM |  |  |  |  |  |  |  | 10.9 µM | 5.06 µM
11 | COc1c2occc2cc2ccc(=O)oc12 [METHOXSALEN] | Not Active | Not Active | Not Active | Not Active | Not Active | Not Active | Not Active | Not Active | Not Active |  |  |  |  |  |  |  |  |  |  | 
12 | O.O.O.O.O.O.[Cl-].[Cl-].[Sr+2] [STRONTIUM CHLORIDE HEXAHYDRATE] | Not Active | Not Active | Not Active | Not Active | Not Active | Not Active |  |  |  |  |  |  |  |  |  |  |  |  |  | 
13 | COc1ccc(CCN(C)CCCC(C#N)(c2ccc(OC)c(OC)c2)C(C)C)cc1OC (centres undefined) | Not Active | Not Active | Not Active | Not Active | Not Active | Not Active | Not Active | Not Active |  |  |  |  |  |  |  |  |  |  |  | 
14 | CCN(CC)CCOc1ccc(/C(=C(/Cl)c2ccccc2)c2ccccc2)cc1 [ENCLOMIPHENE] |  |  | Not Active | Not Active | Not Active | Not Active |  |  | Not Active |  |  |  |  |  |  |  |  |  | 1.52 µM | 0.707 µM
15 | Clc1ccccc1CN1CCc2sccc2C1 [TICLOPIDINE] | Not Active |  | Not Active | Not Active | Not Active | Not Active | Not Active | Not Active |  | 0.426 µM | 0.179 µM |  |  |  |  |  |  |  |  | 
16 | CC(C)Oc1ccc2c(=O)c(-c3ccccc3)coc2c1 [IPRIFLAVONE] | Not Active | Not Active | Not Active | Not Active | Not Active | Not Active | Not Active | Not Active | Not Active |  |  |  |  |  |  |  |  |  |  | 
17 | COc1cc2nc(N3CCN(C(=O)C4CCCO4)CC3)nc(N)c2cc1OC (centres undefined) [TERAZOSIN] | Not Active | Not Active | Not Active | Not Active | Not Active | Not Active |  |  | Not Active |  |  |  |  |  |  |  |  |  |  | 
18 | C[C@H]1C[C@@H]2[C@H]([C@@H](O)C[C@@]3(C)[C@H]2CC[C@]3(O)C(=O)CO)[C@@]2(C)C=CC(=O)C=C12 [METHYLPREDNISOLONE] | Not Active | Not Active | Not Active | Not Active | Not Active | Not Active | Not Active | Not Active |  |  |  |  |  |  |  |  |  |  |  | 
19 | NC1CCN(c2nc3c(cc2F)c(=O)c(C(=O)O)cn3-c2ccc(F)cc2F)C1 (centres undefined) [TOSUFLOXACIN] | Not Active | Not Active | Not Active | Not Active | Not Active | Not Active | Not Active | Not Active | Not Active |  |  |  |  |  |  |  |  |  |  | 
20 | SODIUM ORTHOVANAD | Not Active | Not Active | Not Active | Not Active | Not Active | Not Active | Not Active | Not Active | Not Active |  |  | Not Active | Not Active | Not Active | Not Active | Not Active | Not Active | Not Active |  | 
21 | CN(C)CCOC(c1ccccc1)c1ccccc1 [DIPHENHYDRAMINE] | Not Active | Not Active | Not Active | Not Active | Not Active | Not Active |  |  | Not Active |  |  |  |  |  |  |  |  |  |  | 
22 | CNCCC(Oc1ccc(C(F)(F)F)cc1)c1ccccc1 (centres undefined) [FLUOXETINE] |  |  | Not Active | Not Active | Not Active | Not Active |  |  | Not Active |  |  |  |  |  |  |  |  |  |  | 
23 | CC[C@@H](C(=O)[C@@H](C)[C@@H](O)[C@H](C)[C@@H]1O[C@@H]([C@@H](CC)C(=O)O)CC[C@@H]1C)[C@H]1O[C@]2(C=C[C@@H](O)[C@]3(CC[C@@](C)([C@H]4CC[C@](O)(CC)[C@H](C)O4)O3)O2)[C@H](C)C[C@@H]1C [SALINOMYCIN] | Not Active | Not Active | Not Active | Not Active | Not Active | Not Active | Not Active | Not Active |  |  |  |  |  |  |  |  |  |  |  | 
24 | Cc1ccc(NC(=O)c2ccc(CN3CCN(C)CC3)cc2)cc1Nc1nccc(-c2cccnc2)n1 [IMATINIB] | Not Active | Not Active | Not Active | Not Active | Not Active | Not Active |  |  | Not Active |  |  |  |  |  |  |  |  |  |  | 
25 | Cn1c(=O)c2nc[nH]c2n(C)c1=O.O [THEOPHYLLINE] | Not Active | Not Active | Not Active | Not Active | Not Active | Not Active | Not Active | Not Active |  |  |  |  |  |  |  |  |  |  |  | 
